Reference: article PMC10714399, “Open Source Antibiotics: Simple Diarylimidazoles Are Potent against Methicillin-Resistant Staphylococcus aureus” (ACS Infectious Diseases, 2023)
Converted amounts (≈) assume the structure as drawn. Where two headings read alike, the source gives them in different places.

How the values were obtained:
[1] = system: Staphylococcus aureus NCTC 13373 (mecA-positive; methicillin-resistant); test: In vitro antibacterial activity, MIC (UCL School of Pharmacy assay), MRSA; assay type: cell-based; conditions: for MIC: Staphylococcus aureus
Summary of the method: (§1)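 Each organism was taken from overnight tryptone soya agar, suspended in PBS at A600 0.1, diluted 1:100 in isosensitest broth and added to serially diluted compound (32 to 0.03 μg/mL).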

[2] = system: Enterococcus faecalis ATCC 51299 (vanA-positive; vancomycin-resistant); test: In vitro antibacterial activity, MIC (UCL), VRE; assay type: cell-based
Experimental: Staphylococcus aureus NCTC 13373 (mecA-positive; methicillin-resistant, NCTC 13373) was supplied by the National Collection of Type Cultures (NCTC), Public Health England, United Kingdom. Other organisms, S. aureus ATCC 25923 (methicillin-susceptible) and Enterococcus faecalis ATCC 51299 (vanA-positive; vancomycin-resistant), were obtained from the American Type Culture Collection (ATCC) via LGC Standards, UK. A suspension of each organism was prepared from an overnight plate culture (tryptone soya agar) in phosphate-buffered saline (PBS) and adjusted to an absorbance reading at 600 nm of 0.1, which is approximately equivalent to 1 × 10^8 colony-forming units (CFU) per mL. The cultures were further diluted 1:100 in isosensitest broth (Oxoid, United Kingdom) before 100 μL was used to inoculate each well of a 96-well plate that contained diluted samples of the OSA series. Compounds were evaluated over a 2-fold dilution range from 32 to 0.03 μg/mL. Stocks of the samples were prepared in 100% DMSO at […] before being diluted in isosenstitest broth. The highest concentration of DMSO present was 2%, which has been previously shown not to inhibit the growth of the microorganisms (data not shown). […] Vancomycin was used as a quality control compound.

[3] = Aqueous solubility; assay type: physicochemical; conditions: for solubility: thermodynamic from solid
Source text: To guide our initial SAR exploration work, we obtained liver microsomal intrinsic clearance data for 5 of the 18 compounds assayed by CO-ADD (Supporting Information - CDCO Report and Supporting Information - Biology). We then acquired intrinsic clearance (CLint), plasma protein binding (PPB), and solubility data on further compounds throughout the SAR campaign (Supporting Information - Biology, Tables S3 and S4). […] The more polar compounds (lower LogD) had reduced PPB and were more metabolically stable.
(§2) Table S4. ADME and Pharmacokinetics: compounds only appearing in the Supplementary […]
(§3) MRSA Aqueous HLM CLint Rat Hep CLint
(§4) Cmpd MIC Solubility Human PPB (%) (µL/min/mg (µL/min/10x6 LogD7.4
(§5) (µg/mL) (µM) protein) cells)
(§6) ADME and toxicity for compounds were measured according to procedures outlined in the manuscript submitted in parallel to this one;2 other procedures were used for those compounds analysed by Monash University (in vitro ADME) or UCL (toxicity), both described in the main

[4] = Human plasma protein binding (PPB); assay type: in vitro ADME; conditions: human, plasma
Source text: (§7) To guide our initial SAR exploration work, we obtained liver microsomal intrinsic clearance data for 5 of the 18 compounds assayed by CO-ADD (Supporting Information - CDCO Report and Supporting Information - Biology). We then acquired intrinsic clearance (CLint), plasma protein binding (PPB), and solubility data on further compounds throughout the SAR campaign (Supporting Information - Biology, Tables S3 and S4).
as §2, §3, §4, §5, §6

[5] = Human liver microsome intrinsic clearance; assay type: in vitro ADME
Source text: as §7, §2, §3, §4, §5, §6

[6] = Rat hepatocyte intrinsic clearance; assay type: in vitro ADME
Source text: as §7, §2, §3, §4, §5, §6

[7] = system: S. aureus ATCC 25923 (methicillin-susceptible); test: In vitro antibacterial activity, MIC (UCL), MSSA; assay type: cell-based, Staphylococcus aureus; conditions: Staphylococcus aureus
Summary of the method: as §1

[8] = system: MRC-5SV2 (human lung fibroblast cell line); test: Toxicity against MRC-5SV2; assay type: cell-based
Experimental: as §6

[9] = system: PMM (primary mouse macrophages); test: Toxicity against PMM; assay type: cell-based
Experimental: as §6

[10] = read-out: Human PPB (converted)
[11] = human, liver microsomes, read-out: HLM CLint
[12] = rat, hepatocytes, Figure 4, read-out: Rat Hep CLint
[13] = NEU, read-out: Aqueous Solubility (NEU)
[14] = human plasma, NEU, read-out: Human PPB (NEU) (converted)
[15] = UCL assay, read-out: MRSA MIC (ug/mL) (UCL)
[16] = UCL assay, read-out: MSSA MIC (ug/mL) (UCL)
[17] = NEU, read-out: Aqueous Solubility (uM) (NEU)

For `CS(=O)(=O)c1ccc(-c2c(-c3ccccn3)nc3n2CCC3)cc1` [compound 837], the “activity against MRSA, in words” value [1] was “not tolerated”, the MIC ([1]; 16 h, read-out: MRSA MIC) was greater than 32 µg/mL and the MIC ([1]; read-out: MRSA MIC) was greater than 32 µg/mL. For the same molecule, the MIC ([2]; read-out: VRE MIC) was greater than 32 µg/mL, the solubility ([3]; read-out: Aqueous Solubility) was 317 µM (≈ 108 µg/mL) and the fraction unbound [4, 10] was 0.4. For the same molecule, the microsomal CLint [5, 11] was less than 3 µL/min/mg and the hepatocyte CLint [6, 12] was less than 1 µL/min/1e6 cells.
Work on `COc1ccnc(-c2nc3ccccn3c2N(C)c2ccc(F)cc2)c1` [OSA_001007] yielded an MIC ([1]; UCL, read-out: MRSA MIC (UCL)) of 8 µg/mL (≈ 23 µM), an MIC ([7]; read-out: MSSA MIC (UCL)) of 8 µg/mL (≈ 23 µM) and a solubility [3, 13] of 26 µM (≈ 9.06 µg/mL). The fraction unbound [4, 14] was 0.025, the microsomal CLint ([5]; human liver microsomes, NEU, read-out: HLM CLint (NEU)) was 214 µL/min/mg and the hepatocyte CLint ([6]; rat hepatocytes, NEU, read-out: Rat Hep CLint (NEU)) was greater than 300 µL/min/1e6 cells.
Molecule `N#Cc1ccc(-c2c(-c3ccccn3)nc3n2CCC3)cc1` [compound 975] has an MIC ([1]; 16 h, read-out: MRSA MIC) of 4 µg/mL (≈ 14 µM), an MIC ([1]; read-out: MRSA MIC) of 4 µg/mL (≈ 14 µM) and an MIC ([2]; read-out: VRE MIC) of 16 µg/mL (≈ 55.9 µM). The solubility ([3]; read-out: Aqueous Solubility) was 38 µM (≈ 10.9 µg/mL), the fraction unbound [4, 10] was 0.29 and the “MRC5 TC50” value [8] was 7.4 µg/mL. For the same molecule, the “PMM TC50” value [9] was 18.3 µg/mL.
In the case of `CS(=O)(=O)c1ccc(-c2c(-c3ccccn3)nc3n2CCC3)cc1` [OSA_000837], the MIC ([1]; UCL, read-out: MRSA MIC (UCL)) is reported as greater than 32 µg/mL, the MIC ([2]; read-out: VRE MIC (UCL)) is reported as greater than 32 µg/mL and the “Aqueous Solubility (NEU)” value ([3]; NEU) is reported as 317 µM. For the same molecule, the fraction unbound [4, 14] was 0.4, the “HLM CLint (NEU)” value ([5]; human liver microsomes, NEU) was less than 3 uL/min/mg protein and the “Rat Hep CLint (NEU)” value ([6]; rat hepatocytes, NEU) was less than 1 uL/min/10x6 cells.
For `Cc1cccc(-c2c(-c3ccccn3)nc3n2CCC3)c1` [OSA_000976], the MIC ([1]; UCL, read-out: MRSA MIC (UCL)) was 8 µg/mL (≈ 29.1 µM), the MIC ([2]; read-out: VRE MIC (UCL)) was 32 µg/mL (≈ 116 µM) and the solubility [3, 13] was 556 µM (≈ 153 µg/mL). The fraction unbound [4, 14] was 0.061, the “HLM CLint (NEU)” value ([5]; human liver microsomes, NEU) was 76.1 uL/min/mg protein and the “Rat Hep CLint (NEU)” value ([6]; rat hepatocytes, NEU) was 62.5 uL/min/10x6 cells.
`Cc1nc2cc(-c3c(-c4ccccn4)nc4n3CCC4)ccc2s1` [OSA_000836] gave an MIC ([1]; UCL, read-out: MRSA MIC (UCL)) of 32 µg/mL (≈ 96.3 µM), a solubility [3, 13] of 10 µM (≈ 3.32 µg/mL) and a fraction unbound [4, 14] of 0.098. For the same molecule, the “HLM CLint (NEU)” value ([5]; human liver microsomes, NEU) was 34.1 uL/min/mg protein and the “Rat Hep CLint (NEU)” value ([6]; rat hepatocytes, NEU) was 49.1 uL/min/10x6 cells.
In the case of `N#Cc1cccc(-c2c(-c3ccccn3)nc3n2CCC3)c1` [OSA_000864], the MIC ([1]; UCL, read-out: MRSA MIC (UCL)) is reported as greater than 32 µg/mL, the MIC ([2]; read-out: VRE MIC (UCL)) is reported as greater than 32 µg/mL and the solubility [3, 13] is reported as 37 µM (≈ 10.6 µg/mL). For the same molecule, the fraction unbound [4, 14] was 0.24, the “HLM CLint (NEU)” value ([5]; human liver microsomes, NEU) was 43.7 uL/min/mg protein and the “Rat Hep CLint (NEU)” value ([6]; rat hepatocytes, NEU) was 23.2 uL/min/10x6 cells.
`C[S+]([O-])c1ccc(-c2c(-c3ccccn3)nc3n2CCC3)cc1` (centres unmarked) [compound 838] gave an MIC ([1]; 16 h, read-out: MRSA MIC) greater than 32 µg/mL, an MIC ([1]; read-out: MRSA MIC) greater than 32 µg/mL and an MIC ([2]; read-out: VRE MIC) greater than 32 µg/mL. For the same molecule, the solubility ([3]; read-out: Aqueous Solubility) was 756 µM (≈ 245 µg/mL), the fraction unbound [4, 10] was 0.45 and the microsomal CLint [5, 11] was less than 3 µL/min/mg. It also gave a hepatocyte CLint [6, 12] of less than 1 µL/min/1e6 cells.
For `CC(C)CN(c1ccc(F)cc1)c1c(-c2ccccn2)nc2ccccn12` [OSA_000983], the MIC ([1]; UCL, read-out: MRSA MIC (UCL)) was 2 µg/mL (≈ 5.55 µM), the MIC ([7]; read-out: MSSA MIC (UCL)) was 4 µg/mL (≈ 11.1 µM) and the MIC ([2]; read-out: VRE MIC (UCL)) was 8 µg/mL (≈ 22.2 µM). For the same molecule, the “Aqueous Solubility (NEU)” value ([3]; NEU) was 8 µM, the fraction unbound [4, 14] was 0.0042 and the “HLM CLint (NEU)” value ([5]; human liver microsomes, NEU) was 58.8 uL/min/mg protein. For the same molecule, the “Rat Hep CLint (NEU)” value ([6]; rat hepatocytes, NEU) was 234 uL/min/10x6 cells, the “MRC5 TC50” value ([8]; MRC5 cells) was 54 µM and the “PMM TC50” value ([9]; PMM) was 23 µM.
Molecule `CC(=O)N(c1ccc(F)cc1)c1c(-c2ccccn2)nc2ccccn12` [OSA_001021] has an MIC [1, 15] greater than 32 µg/mL, an MIC [7, 16] greater than 32 µg/mL and a solubility [3, 17] of 10 µM (≈ 3.46 µg/mL). For the same molecule, the fraction unbound ([4]; human plasma, NEU, read-out: Human PPB (%) (NEU) (converted)) was 0.17, the “HLM CLint (uL/min/mg protein) (NEU)” value ([5]; human liver microsomes, NEU) was 19.8 uL/min/mg protein and the “Rat Hep CLint (uL/min/10x6 cells) (NEU)” value ([6]; rat hepatocytes, NEU) was 81.2 uL/min/10x6 cells. For the same molecule, the “MRC5 TC50” value ([8]; MRC5 cells) was 64 µM and the “PMM TC50” value ([9]; PMM) was 64 µM.
Work on `[2H]C([2H])([2H])N(c1ccc(F)cc1)c1c(-c2ccccn2)nc2ccccn12` [OSA_001002] yielded an MIC ([1]; UCL, read-out: MRSA MIC (UCL)) of 16 µg/mL (≈ 49.8 µM), an MIC ([7]; read-out: MSSA MIC (UCL)) of 16 µg/mL (≈ 49.8 µM) and a solubility [3, 13] of 116 µM (≈ 37.3 µg/mL).
With `COc1ccc(-c2nc3ccccn3c2Nc2ccc(F)cc2)nc1` [OSA_001022] the MIC [1, 15] was 8 µg/mL (≈ 23.9 µM), the MIC [7, 16] was 8 µg/mL (≈ 23.9 µM) and the solubility [3, 17] was 3 µM (≈ 1 µg/mL).
